We go through 3 molecules from article PMC8684484, “The assessment of Pseudomonas aeruginosa lectin LecA binding characteristics of divalent galactosides using multiple techniques” (Glycobiology, 2021).

Assay [1] addresses T1, LecA (Pseudomonas aeruginosa, UniProt Q05097).
T1 construct: purchased Sigma–Aldrich (Steinheim, Germany)
Put plainly: Native ESI-MS occupancy of the LecA tetramer. The conditions noted are these: ligand 600 μM, LecA 10 μM; estimated from MS intensities. Format: binding. Here is the method: At the high concentration of monovalent compound 1 (600 μM) incubated with LecA (10 μM), a varying number of binding pockets of the tetrameric lectin were occupied by the monovalent ligand indicated by four different peaks in close proximity (Figure 8b). At these concentrations, an estimated number of copies of LecA of 8% remains fully unoccupied, 18% has one pocket occupied, 26% has two pockets occupied, 27% has three pockets occupied and 21% is fully occupied. We used the intensity values as determined by mass spectrometry as a proxy of their abundances in solution to calculate the occupancy values, for which previously it was shown that there is good correlation ([Seo et al. 2016]).
At a low (substoichiometric) concentration of divalent compound 2 (2 μM), 3 m/z peaks were observed that correspond to unbound LecA (estimated 6%), LecA bound to one compound 2 (estimated 39%) and LecA bound to two of the divalent ligand 2 (estimated 55%) (Figure 8c). […] As no peaks were detected corresponding to a single or triple binding pockets of the tetrametric lectin, excellent support is provided for the effective divalent binding of our molecule at reasonable concentrations.
To investigate the interaction between LecA and compounds 1 and 2, we incubated these compounds with LecA and transferred the produced complex into a 150 mM ammonium acetate solution (pH 7.5) by applying 10 μM of the protein ligand complex in a ratio of 1:1 on a pre-equilibrated 6-kDa Micro Bio-Spin column (Bio-Rad). The protein was eluted by centrifugation at 1,000 × g and 4°C. MS measurements were performed in positive ion mode using an Electrospray Ionization Time-of-Flight instrument (LC-T; Micromass, Manchester, UK) equipped with a Z-spray nanoelectrospray ionization source. Samples were sprayed from in-house prepared borosilicate glass capillaries (Kwik-Fil; World Precision Instruments, Sarasota, FL) prepared on a P-97 puller (Sutter Instruments, Novato, CA, USA) and coated with a thin layer of gold by using an Edwards Scan coat six Pirani 501 sputter coater (Edwards Laboratories, Milpitas, CA, USA). Instrument settings were adjusted for optimal transmission of high mass ions. A capillary voltage of 1300 V was used, in combination with a sampling cone voltage of 60 V. The source backing pressure was elevated to approximately 6.7 mbar in order to promote collisional cooling. All TOF data were mass calibrated by using an aqueous solution of cesium iodide (25 mg·mL^−1) and interpreted manually using MassLynx software (Waters, version 4.1).

In assay [2] the target is T1, LecA. Description: Fluorescence-based thermal shift assay (TSA), Sypro orange. Format: binding. The settings on record: ligand 500 μM; for Tm of LecA: no ligand 71.7. Here is the method: As ligand binding is known to shift the melting point of proteins in a ligand concentration dependent manner, we performed the TSA experiments with two different concentrations of LecA (0.5 and 1 mg/mL) containing the fluorescent dye sypro orange. […] Therefore, we selected a fixed concentration of 1 mg/mL for the subsequent experiments. […] Divalent 2 stabilizes LecA by more than 11°C at a concentration of 20 μM (Figure 7).
TSA was performed using a standard real-time PCR instrument. To monitor protein unfolding, the fluorescent dye Sypro orange was used. Sypro orange is an environmentally sensitive dye (Thermo Fischer 5000x in DMSO). The unfolding process exposes the hydrophobic region of proteins and results in a large increase in fluorescence, which is used to monitor the protein-unfolding transition ([Lo et al. 2004]). The TSA was performed with a BioRad CFX96 real-time PCR machine, and analysis for binding induced shifts in thermal transition was performed with Bio-Rad CFX Manager 3.1 Software provided by the manufacturer (BioRad, Hercules, CA, USA).
Galactose based inhibitors specifically bind to the binding pocket of the lectin. Ligands could stabilize LecA (0.5 and 1 mg/mL) upon binding and therefore the protein Tm might increase. The shift in Tm with an addition of the ligand (ΔTm) serves as a qualitative measure of protein stability and allows to determine whether a protein–ligand binding event occurs. We here show the effect of different carbohydrates on the thermal denaturation of LecA. Sypro orange conc, used: 320× from commercial 5000×).

The target of assay [3] is T2, Maclura pomifera Lectin (MPL) (Maclura pomifera, UniProt P18674).
T2 construct: purchased Vector Laboratories (San Francisco, CA, USA)
Description: ACE selectivity experiment with MPL as binding competitor. The conditions noted are these: mixture of LecA and MPL; 1 mM of 1 or 20 μM of 2 in BGE. Here is the method: A mixture of LecA and MPL was analyzed by ACE, and affinity studies were carried out by adding the carbohydrates 1 and 2 to the BGE.
CE analyses were carried out using an Agilent 7100 instrument (Agilent technologies, USA). Bare fused-silica capillaries, with a 100 μm internal diameter, 365 μm outer diameter and a 50 cm total length, were from Biotaq (Gaithersburg, MD, USA). The detection window of the capillary was created at 10 cm from the outlet of the capillary. Hydrodynamic injections were performed at 17 mbar for 4 s, by injecting LecA or MPL (10 μM). The separation voltage was set at −10 kV and the caplillary temperature was maintained at 25°C during analysis. Ultraviolet detection was performed from 190 nm to 280 nm, but data recorded at 214 nm were used in this study. The BGE for the analysis of the lectins was potassium phosphate prepared by dissolving the appropriate amount of compounds in water and adjusting the pH with a sodium hydroxide solution. Capillaries were coated with Ultra Trol LN. Stable currents of 45 μA were observed during the affinity measurements with optimum buffer conditions (25 mM KH2PO4 at pH 7).
In order to study the affinity of LecA toward inhibitors, LecA was injected and carbohydrate inhibitors were added to the BGEs. BGEs were prepared containing 1 mM of compound 1, 20 μM of compound 2, or without carbohydrate. […]

Assay [4] deals with T1, LecA. Description: Affinity capillary electrophoresis (ACE), direct binding, μeff shift of LecA with carbohydrate in BGE. Here is the method:
For affinity studies, two different LecA ligands were used. The first was the carboxylated galactoside (1). This was used as the reference monovalent ligand and its negatively charged carboxylate increases the chances of a protein shift in CE where charges are the important mobility determinant. Furthermore we used the bivalent carbohydrate (2), previously optimized for bivalent binding ([Yu et al. 2019b]). These glycoligands were added to the optimized CE background electrolyte (BGE) and the protein LecA was injected. For KD determination the BGE containing increasing concentrations of carbohydrate 1 or carbohydrate 2 were prepared and used for the analysis of LecA (10 μM). […] For each carbohydrate and each concentration, the difference of the measured μeff of LecA with the μeff acquired without carbohydrate in the BGE, was determined. […]
CE analyses were carried out using an Agilent 7100 instrument (Agilent technologies, USA). […] Ultraviolet detection was performed from 190 nm to 280 nm, but data recorded at 214 nm were used in this study. […]
BGEs containing increasing concentrations of compound 1 and/or compound 2 were prepared at the pH for which μeff shifts were observed and used for KD determination. For each carbohydrate and each studied concentration, the difference of the measured μeff of LecA with the μeff obtained without carbohydrate was determined. […]

Another assay deals with T3, JIL (Jacalin lectin) (Artocarpus integer, UniProt P18670).
T3 construct: purchased Sigma–Aldrich (Steinheim, Germany)
Description: Bio-layer interferometry (BLI), biotinylated ligand on streptavidin sensor. The settings on record: immobilized ligand. Type of assay: binding, Jackfruits. Here is the method:
(§1) The biotinylated galactoside 3 (Figure 5) was immobilized on a streptavidin coated sensor. […] This is likely due to the well-known low affinity of monovalent ligands for most lectins even though the presentation of the ligand on the chip was also multivalent, but apparently not matching the distances between binding sites. Next, the binding properties of the divalent biotinylated 4 with the mentioned lectins were evaluated. […] Indeed, during the dissociation step, the signal only partially decreases down to the baseline and this lack of full dissociation indicates high affinity. Using this setup, kinetic parameters of the interaction were determined for the divalent galactoside to evaluate whether the divalent binding mode of this ligand influences the lectin–ligand kinetics. By fitting the sensorgrams with a global model ([…]), association (ka or kon) and dissociation (kd or koff) constants were determined and the KD was calculated from the ratio of kd over the ka while the residence time (τ) was derived from 1/kd. […] The same was true for compound 4 and lectins MPL and JIL.
BLI measurements were carried out using an Octet RED 384 instrument (ForteBio). Biosensors were transferred into fresh assay buffer for 180 s to collect a baseline read. […] The KD derived from kinetic fitting was calculated as koff/kon.
Background: Biolayer interferometry detects binding as a change in optical thickness at a sensor tip.

Assay [5] has as its target T1, LecA. Described as above. Type of assay: binding. The conditions noted are these: immobilized ligand. Here is the method:
as §1
(§2) BLI measurements were carried out using an Octet RED 384 instrument (ForteBio). Biosensors were transferred into fresh assay buffer for 180 s to collect a baseline read. Compound 3 and compound 4 were immobilized on streptavidin (SA)-functionalized biosensors to maximum levels by incubation for 900 s at 1 μM ([Guo et al. 2018]). For each set of biosensors, an 180 s baseline in buffer alone was acquired followed by an 1800 s association step and an 1800 s dissociation step. All experiments were carried out using PBS (10 mM phosphate, 150 mM NaCl, pH 7.4) as the assay buffer at 298 K. Data were processed and analyzed and KD values were determined using the global fitting procedures as implemented in Octet® system Data Analysis Software 9.0.0.48 (Pall ForteBio LLC, Menlo Park, CA, USA). Kinetic responses were fitted to a 1-site binding model to obtain values for association (kon) and dissociation (koff) rate constants. The KD derived from kinetic fitting was calculated as koff/kon.

For another assay, the target named is T4, MPL (Maclura pomifera, UniProt P18674).
T4 construct: purchased Vector Laboratories (San Francisco, CA, USA)
Described as above. Format: binding. The conditions noted are these: immobilized ligand. Here is the method: as §1, §2

As a reminder, the Kd is the equilibrium constant for the complex coming apart.

T1 sequence (Q05097 2-122): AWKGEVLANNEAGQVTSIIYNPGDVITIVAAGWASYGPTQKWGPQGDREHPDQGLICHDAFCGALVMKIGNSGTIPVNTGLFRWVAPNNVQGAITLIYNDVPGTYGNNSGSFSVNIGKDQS
T3 sequence (P18670 whole entry): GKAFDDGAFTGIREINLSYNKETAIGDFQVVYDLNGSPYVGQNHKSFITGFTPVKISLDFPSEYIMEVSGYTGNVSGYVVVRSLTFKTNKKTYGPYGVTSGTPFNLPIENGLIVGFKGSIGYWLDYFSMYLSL
T3 sequence (P18673 whole entry, further chain): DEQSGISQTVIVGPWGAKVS
T4 sequence (P18674 whole entry): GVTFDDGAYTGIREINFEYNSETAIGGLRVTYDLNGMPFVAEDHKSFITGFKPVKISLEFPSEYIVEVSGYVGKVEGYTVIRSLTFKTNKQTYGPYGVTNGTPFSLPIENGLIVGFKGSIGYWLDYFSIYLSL
T4 sequence (P18676 whole entry partner): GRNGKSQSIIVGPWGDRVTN
T2 sequence (P18674 whole entry): as the sequence (P18674 whole entry) above

Regarding `O=C(O)CO[C@@H]1O[C@H](CO)[C@H](O)[C@H](O)[C@H]1O` [Compound 1], on LecA [1], the LecA fully occupied is listed as 21%, the LecA fully unoccupied is reported as 8%, the “LecA with one pocket occupied” value is given as 18% and the “LecA with three pockets occupied” value is given as 27%. On LecA [1], the “LecA with two pockets occupied” value is reported as 26%. Also, the “Tm of LecA” value on LecA [2] worked out at 74.0 °C. The “μeff shift of MPL with carbohydrate in BGE” value in assay [3] is reported as “sizeable shift”. Moreover, on LecA [4], the Kd is 27 µM. Further, at LecA [4] (mixture of LecA and MPL, 1 mM of 1 or 20 μM of 2 in BGE), the “μeff shift of LecA with carbohydrate in BGE” value was “sizeable shift”.

As for `O=C(CCCC[C@@H]1SC[C@@H]2NC(=O)N[C@@H]21)NCCCCCC(=O)NCCCO[C@@H]1O[C@H](CO)[C@H](O)[C@H](O)[C@H]1O` [Compound 3], the BLI signal result on JIL (Jacalin lectin) (JIL at 1 μM), on LecA [5] (LecA at 1 μM) and on MPL (MPL at 1 μM) was “no detectable signal” throughout. The “BLI association and dissociation” value on JIL (Jacalin lectin) (JIL up to 10 μM) is “no significant association and dissociation phenomena”; at LecA [5] (LecA up to 10 μM), “no significant association and dissociation phenomena”; on MPL (MPL up to 10 μM), “no significant association and dissociation phenomena”.

As for `OC[C@H]1OC(O)[C@@H](O)[C@@H](O)[C@@H]1O` (stereo partly drawn) [D-Mannose, D-mannose], the “stabilization of LecA (ΔTm)” value on LecA [2] (LecA 1 mg/mL) was “did not stabilize LecA at all”. The “Tm of LecA” value on LecA [2] was determined as 71.7 °C.
